# Results published in patent US20070280944A1, “Use of 5,10-Methylene Tetrahydrofolate for the Treatment of Cancer” (priority 2004, published 2007).
# Key:
# Balb/c mice [1] = system: Balb/c mice
# Method: (§1) Balb/c mice were obtained from Charles River Laboratories.
# 5-Fluorouracil (5-FU) was obtained from Calbiochem. Leucovorin (folinic acid) was obtained from Sigma-Aldrich.
# All drugs were intraperitoneally injected (100 microliters/mouse, 0.6mg/mouse/drug) using a 28 gauge insulin needle/syringe. 200-250 microliters blood/mouse was collected by retro-orbital puncture into EDTA-coated microtainer tubes (VWR International) on days 0 (prior to drug injection), 8, and 13. Complete blood counts plus blood differentials were determined by Labcorp Corporation of America using a Bayer Advia 120 Hematology analyzer.
# [2] = system: human colon carcinoma HT-29; assay: HT-29 Colorectal Carcinoma Nude Mouse Study #2 (doubling time, tumor volume, survival); format: in vivo, Nude (nu/nu) mice
# Text: (§2) Nude (nu/nu) mice were obtained from Charles River Laboratories.
# 5-Fluorouracil (5-FU) was obtained from Calbiochem. Leucovorin (leucovorin) and oxaliplatin were obtained from Sigma-Aldrich. 5,10 methylenetetrahydofolate was manufactured by Eprova AG. A monoclonal antibody to vascular endothelial growth factor (anti-VEGF) was either obtained from R&D Systems (clone 26503 recognizing the human VEGF isoform 165) or Genentech (Avastin).
# Finally, cells were resuspended at 1×10^7 cells/ml in PBS. […] All drugs were dosed daily (0.6 mg/mouse/drug) for seven consecutive days with the exception of anti-VEGF, dosed twice (100 micrograms/mouse) on days 1 and 7. In addition, 5,10-CH2-THFA or leucovorin were injected 20 minutes prior to 5-FU injection. Tumor sizes were measured every 2 to 3 days using calipers.
# (§3) Statistical analysis of tumor and blood data was performed using GraphPad Prism scientific software. Bonferonni's T test was used to compare tumor sizes between multiple groups. The Logrank test was used to determine statistical differences between group survival curves. In some cases, in which only two groups were compared, Student's T test was used to determine the significance between group measurements.
# [3] = system: human colon carcinoma HT-29; assay: HT-29 Colorectal Carcinoma Nude Mouse Study #1 (tumor volume, survival); format: in vivo, Nude (nu/nu) mice; conditions: for mean tumor volume: 22 days following treatment initiation, mean±SEM, i.p. dosing, in mm³ (unit assumed)
# Method: as §2
# 5-Fluorouracil (5-FU) was obtained from Calbiochem. Leucovorin (leucovorin) and oxaliplatin were obtained from Sigma-Aldrich.
# Finally, cells were resuspended at 2×10^7 cells/ml in PBS. […] All drugs were dosed daily (0.6 mg/mouse/drug) for five consecutive days with the exception of anti-VEGF and oxaliplatin. Anti-VEGF was dosed once (100 microgram/mouse) on day 5. Oxaliplatin was dosed once on day 1 (0.3mg/mouse). In addition, 5,10-CH2-THFA or leucovorin were injected 20 minutes prior to 5-FU injection. Tumor sizes were measured every 2 to 3 days using calipers.
# as §3
# Balb/c mice [4] = format: in vivo
# Method: as §1
# 5-Fluorouracil (5-FU) and leucovorin (leucovorin) were obtained from Sigma-Aldrich. […] Gemcitabine was manufactured by Eli Lilly and purchased from Myoderm Inc.
# Balb/c female mice were injected with combinations of 5-FU, leucovorin, 5,10-CH2-THFA, and gemcitabine. 5-FU, leucovorin, and 5,10-CH2-THFA were intraperitoneally injected (100 microliters/mouse, 0.6 mg/mouse/drug) for five consecutive days (days 1-5). Gemcitabine was intraperitoneally injected (100 microliters/mouse, 100 micrograms/mouse) every three days (days 1, 4, and 7). All drugs were injected using a 27 gauge insulin needle/syringe. Mouse weights were measured using an analytical balance prior to initiation of drug dosing (pretreatment) and on day 8.
# [5] = system: human colon carcinoma HT-29; assay: Nude mouse study on HT-29 colorectal tumor treatment with capecitabine (Xeloda) (doubling time, survival)
# Method: Nude (nu/nu) mice were obtained from Simonsen Laboratories. Mice were 6-8 weeks old at the start of all studies. Mice were maintained in isolated, hepa-filter ventilated cages with 4 mice per cage at Perry Scientific's vivarium (San Diego, Calif.).
# The human colon carcinoma HT-29 was obtained from American Tissue Culture Collection (ATCC). Cells were maintained in DMEM containing 10% fetal bovine serum (FBS), 2 mM 1-glutamine, 100 units/ml penicillin, and 100 micrograms/ml streptomycin (DMEM-10) in a 37° C., 10% CO2 humidified incubator. Cells were passaged every 2-3 days prior to in vivo experiments.
# Capecitabine (Xeloda) was manufactured by Roche Laboratories (Nutley, N.J.) Leucovorin (leucovorin) was obtained from Sigma-Aldrich. 5,10 methylenetetrahydofolate (5,10-CH2-THFA) was manufactured by Eprova AG.
# HT-29 cells were prepared for injection as follows: Confluent tissue culture flasks of HT-29 cells were washed once with PBS followed by cell detachment with trypsin. Detached cells were then washed once in DMEM-10 followed by one wash with PBS. Finally, cells were resuspended in PBS at 10^7 cells/ml. […] Tumor sizes and mouse body weights were measured every 2-4 days. Tumor volume was calculated using the following formula: tumor volume=(length×width^2)/2. […]
# [6] = Weight loss toxicity in the Xeloda HT-29 nude mouse study; format: in vivo, Nude (nu/nu) mice; conditions: maximum toxicity grade, NCI CTC v3 (grade 1 5-<10% weight loss)
# Text: As a surrogate marker for drug toxicity, we examined mouse body weights over time. Using the National Cancer Institute's Common Toxicity Criteria version 3 grading system for weight loss (Table 11), the maximum toxicity grade of weight loss was plotted (FIG. 21). While Xeloda by itself was relatively nontoxic, inducing only grade 1 toxicity in 36% of the mice, leucovorin increased the overall grade 1-3 toxicity to 90% of mice. This increased toxicity is consistent with phase II human clinical trial results showing leucovorin increased Xeloda toxicity parameters such as diarrhea, vomiting, and mucosal inflammation (Van Cutsem, E., M. Findlay, B. Osterwalder, W. Kocha, D. Dailey, R. Pazdur, J. Cassidy, L. Dirix, C. Twelves, D. Allman, J. F. Seitz, J. Scholmerich, H. U. Burger, and J. Verweij. 2000. Capecitabine, an oral fluoropyrimidine carbamate with substantial activity in advanced colorectal cancer: results of a randomized phase II study. J Clin Oncol 18:1337).
# [7] = female, Balb/c, mouse, in vivo, 1 week following drug treatment
# [8] = female, Balb/c, mouse, in vivo, 8 day
smiles,measurement,setting,value
"O=c1[nH]cc(F)c(=O)[nH]1 [5-FU, 5-fluorouracil]",mice with Grade 3-4 lymphopenia,"Balb/c mice [1]; NCI grading on % of baseline lymphocyte levels (Grade 3 25-<50% LLN, Grade 4 <25% LLN), one week following drug treatment",100%
same,grade 4 neutrophil toxicity mice with neutrophil cell counts between 0 and 99,"Balb/c mice [1]; female, Balb/c, mouse, in vivo",100%
same,mice with grade 4 neutrophil toxicity,Balb/c mice [1]; [7],100%
same,mice with grade 4 platelet toxicity,Balb/c mice [1]; [7],25%
same,mean tumor volume,"[2]; 19 days following treatment initiation, mean±SEM, in mm³ (unit assumed)",368.5±63.7
same,Tumor Doubling Time,"[2]; from best-fit curve analysis, Nude mice bearing HT-29 tumor",7.4 days
same,mean tumor volume,[3]; Nude mice bearing HT-29 tumor,752.5±104.2
same,mice still alive (survival),"[3]; at completion of the study period (42 days), Nude mice bearing HT-29 tumor",25%
same,mice with grade 2-3 weight loss toxicity,Balb/c mice [4]; [8],100%
same,mice surviving for up to 14 days,Balb/c mice [4]; normal Balb/c mice,36%
"O=C1[O][Pt]2([NH][C@@H]3CCCC[C@H]3[NH]2)[O]C1=O [Oxaliplatin, oxaliplatin]",mean tumor volume,[3]; Nude mice bearing HT-29 tumor,875.0±90.6
same,response of HT-29 tumor to drug,"[3]; largest tumors of all groups, FIG. 4",not responsive
"CCCCCOC(=O)Nc1nc(=O)n([C@@H]2O[C@H](C)[C@@H](O)[C@H]2O)cc1F [Xeloda, N4-pentoxylcarbonyl-5′-deoxy-5-fluorocytidine]",Tumor Doubling Time,"[5]; from best-fit linear regression of exponential tumor growth, 14 consecutive days dosing",10.1 days
same,survival,[5]; on day 33 of the experiment (day 1 = first day of drug dosing),38%
same,mice with grade 1 weight loss toxicity (only grade seen),[6],36%
Nc1ccn([C@@H]2O[C@H](CO)[C@@H](O)C2(F)F)c(=O)n1 [gemcitabine],weight loss toxicity grade,Balb/c mice [4]; [8],grade 1
